Target: T1, Short transient receptor potential channel 5 (Homo sapiens, UniProt Q9UL62)
T1 sequence (Q9UL62 whole entry): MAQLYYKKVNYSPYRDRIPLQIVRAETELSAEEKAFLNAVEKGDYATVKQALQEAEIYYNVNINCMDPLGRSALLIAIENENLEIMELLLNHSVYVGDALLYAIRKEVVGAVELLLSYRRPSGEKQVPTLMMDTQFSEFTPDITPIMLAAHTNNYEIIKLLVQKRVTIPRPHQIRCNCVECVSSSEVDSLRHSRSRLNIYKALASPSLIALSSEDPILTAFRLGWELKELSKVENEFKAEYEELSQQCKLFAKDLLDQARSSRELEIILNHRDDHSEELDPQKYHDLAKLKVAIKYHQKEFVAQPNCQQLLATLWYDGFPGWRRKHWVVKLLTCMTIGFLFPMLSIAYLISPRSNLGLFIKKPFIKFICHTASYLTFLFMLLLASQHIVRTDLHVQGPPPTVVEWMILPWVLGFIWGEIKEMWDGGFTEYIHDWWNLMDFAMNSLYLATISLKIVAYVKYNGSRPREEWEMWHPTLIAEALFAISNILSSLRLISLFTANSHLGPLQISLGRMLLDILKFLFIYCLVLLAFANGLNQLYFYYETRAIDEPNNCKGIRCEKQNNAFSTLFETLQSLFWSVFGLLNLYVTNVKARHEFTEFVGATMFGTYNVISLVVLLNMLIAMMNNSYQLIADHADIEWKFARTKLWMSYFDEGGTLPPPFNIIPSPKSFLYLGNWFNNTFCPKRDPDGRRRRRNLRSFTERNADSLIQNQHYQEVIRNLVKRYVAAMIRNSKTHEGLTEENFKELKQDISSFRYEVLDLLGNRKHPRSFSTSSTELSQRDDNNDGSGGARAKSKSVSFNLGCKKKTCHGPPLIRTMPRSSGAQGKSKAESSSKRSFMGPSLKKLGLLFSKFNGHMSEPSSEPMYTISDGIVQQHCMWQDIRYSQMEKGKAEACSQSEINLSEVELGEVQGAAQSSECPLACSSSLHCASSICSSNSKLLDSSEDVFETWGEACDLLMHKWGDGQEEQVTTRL
Assay: High Throughput Screening Assay: The commercially available HEK293/TREx line (Invitrogen) was stably transfected with a TRPC5 construct and screened by conventional calcium imaging to find clones with TRPC5 expression following stimulation with 1 μg/ml tetracycline. These cells were maintained in the growth medium recommended by the manufacturer supplemented with 100 μg/ml hygromycin to promote retention of the TRPC5 construct. After growing to near confluency, cells were plated at a density of Ë¿35,000 cells/well in 384 well CellBind plates (Corning) in the presence of 1 μg/ml tetracycline, and allowed to grow for 20-30 hrs. A nearly confluent monolayer resulted. Cells were then loaded with Ca2+ dye: Fura-2/AM or Fluo4/AM was added to the wells to a final concentration of 4 μM or 0.5 μM, respectively, and incubated for 80 min or 60 min, respectively, at room temperature. Supernatant was then removed from the cells by inverting plates with a sharp flick, and 25 μl Hank's Balanced Salt Solution (HBSS; 0.185 g/l D-glucose, 0.9767 g/l MgS04 (anhydrous), 0.4 g/l KCl, 0.06 g/l KH2PO4 (anhydrous), 0.35 g/l NaHCO3, 8.0 g/l NaCl, and 0.04788 g/l Na2HPO4 (anhydrous); pH 7.4) was then added to each well. […]

Structure (SMILES) | IC50
Cc1c(-c2cccc(Cl)c2Cl)sc2c1c(=O)n(CCCO)c(=O)n2C | 31.6 nM
Cn1c(=O)n(CCCO)c(=O)c2c(C(O)c3ccc(Cl)cc3)c(Oc3cccc(OC(F)(F)F)c3)sc21 (configuration not stated) | 194 nM

Reference: ChEMBL document CHEMBL3886925, “Thieno- and furo[2,3-d]pyrimidine-2,4[1H,3H]-dione derivatives” (2016)
